# Assay results taken from ChEMBL document CHEMBL4219047, “Optimization of peptide-based polyagonists for treatment of diabetes and obesity” (Bioorg Med Chem, 2018).
# Where a SMILES comes first, the peptide text is derived from it.
# Experiments:
# Assay type in all cases: functional, cell-based
# [1] = target: T1, Glucagon-like peptide 1 receptor (Homo sapiens, UniProt P43220); assay: Agonist activity at human GLP1 receptor expressed in HEK293 cells assessed as increase in cAMP level after 5 hrs by CRE driven luciferase reporter gene assay
# Glucagon receptor [2] = target: T2, Glucagon receptor (Homo sapiens, UniProt P47871); assay: Agonist activity at human GCG receptor expressed in HEK293 cells assessed as increase in cAMP level after 5 hrs by CRE driven luciferase reporter gene assay
# [3] = target: T3, Gastric inhibitory polypeptide receptor (Homo sapiens, UniProt P48546); assay: Agonist activity at human GIP receptor expressed in HEK293 cells assessed as increase in cAMP level after 5 hrs by CRE driven luciferase reporter gene assay
# T3 sequence (P48546 whole entry): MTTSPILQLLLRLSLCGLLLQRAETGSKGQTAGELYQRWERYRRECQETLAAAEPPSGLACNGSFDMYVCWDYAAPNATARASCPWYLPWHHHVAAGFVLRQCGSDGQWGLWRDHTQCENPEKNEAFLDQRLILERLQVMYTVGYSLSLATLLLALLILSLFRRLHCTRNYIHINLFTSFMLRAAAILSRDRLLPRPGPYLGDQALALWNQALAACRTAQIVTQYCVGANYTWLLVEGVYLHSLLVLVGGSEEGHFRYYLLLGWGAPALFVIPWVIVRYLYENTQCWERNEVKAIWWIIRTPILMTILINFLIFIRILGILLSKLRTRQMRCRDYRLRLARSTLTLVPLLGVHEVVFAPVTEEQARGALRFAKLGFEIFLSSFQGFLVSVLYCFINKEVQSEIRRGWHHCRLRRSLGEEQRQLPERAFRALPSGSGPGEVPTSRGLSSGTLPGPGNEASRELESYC
# [4] = target: T1, Glucagon-like peptide 1 receptor; assay: Agonist activity at human GLP1 receptor expressed in HEK293 cells assessed as increase in cAMP level after 5 hrs by CRE driven luciferase reporter gene assay relative to GLP1; design: concentration or dose not given beside the values
# Glucagon receptor [5] = target: T2, Glucagon receptor; assay: Agonist activity at human GCG receptor expressed in HEK293 cells assessed as increase in cAMP level after 5 hrs by CRE driven luciferase reporter gene assay relative to glucagon
# [6] = target: T4, Gastric inhibitory polypeptide receptor (Homo sapiens) (UniProt P48546); assay: Agonist activity at human GIP receptor expressed in HEK293 cells assessed as increase in cAMP level after 5 hrs by CRE driven luciferase reporter gene assay relative to GIP; design: concentration or dose not given beside the values
# T4 sequence (whole entry): T3 sequence (P48546 whole entry)
# T2 sequence (P47871 whole entry): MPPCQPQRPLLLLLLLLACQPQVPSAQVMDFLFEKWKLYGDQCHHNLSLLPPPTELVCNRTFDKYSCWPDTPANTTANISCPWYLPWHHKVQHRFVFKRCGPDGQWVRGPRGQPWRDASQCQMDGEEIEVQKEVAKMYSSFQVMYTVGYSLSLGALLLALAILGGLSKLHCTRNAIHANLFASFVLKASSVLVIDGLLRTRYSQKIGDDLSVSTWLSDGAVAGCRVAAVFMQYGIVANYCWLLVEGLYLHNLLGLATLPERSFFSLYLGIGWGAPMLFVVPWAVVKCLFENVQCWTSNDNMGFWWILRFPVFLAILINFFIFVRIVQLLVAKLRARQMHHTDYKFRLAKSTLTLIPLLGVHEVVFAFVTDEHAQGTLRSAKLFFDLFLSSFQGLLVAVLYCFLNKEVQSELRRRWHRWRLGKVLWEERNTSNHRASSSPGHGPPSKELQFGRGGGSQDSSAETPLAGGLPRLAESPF
# T1 sequence (P43220 whole entry): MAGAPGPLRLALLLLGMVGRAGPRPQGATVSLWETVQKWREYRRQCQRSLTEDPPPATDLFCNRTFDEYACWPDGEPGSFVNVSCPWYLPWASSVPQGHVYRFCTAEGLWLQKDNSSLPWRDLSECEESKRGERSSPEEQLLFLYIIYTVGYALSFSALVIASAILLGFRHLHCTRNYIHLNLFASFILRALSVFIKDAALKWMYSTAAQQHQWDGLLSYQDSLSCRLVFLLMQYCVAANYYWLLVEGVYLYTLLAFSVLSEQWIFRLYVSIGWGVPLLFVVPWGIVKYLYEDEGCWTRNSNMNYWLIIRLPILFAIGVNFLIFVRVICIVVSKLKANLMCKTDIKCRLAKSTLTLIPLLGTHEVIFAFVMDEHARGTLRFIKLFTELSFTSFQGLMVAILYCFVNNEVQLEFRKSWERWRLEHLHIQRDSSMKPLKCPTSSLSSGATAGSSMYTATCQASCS
EC50 [1],EC50 (Glucagon receptor [2]),EC50 [3],Activity [4],Activity (Glucagon receptor [5]),Activity [6],SMILES
0.003 nM,0.003 nM,3.54 nM,933%,1070%,1%,CCCCCCCCCCCCCCCC(=O)N[C@@H](CCC(=O)NCCCC[C@H](NC(=O)[C@H](CC(=O)O)NC(=O)[C@H](CO)NC(=O)[C@@H](NC(=O)[C@H](Cc1ccccc1)NC(=O)[C@@H](NC(=O)CNC(=O)[C@H](CCC(N)=O)NC(=O)C(C)(C)NC(=O)[C@@H](N)Cc1cnc[nH]1)[C@@H](C)O)[C@@H](C)O)C(=O)N[C@@H](CO)C(=O)N[C@@H](CCCCN)C(=O)N[C@@H](Cc1ccc(O)cc1)C(=O)N[C@@H](CC(C)C)C(=O)N[C@@H](CC(=O)O)C(=O)N[C@@H](CCC(=O)O)C(=O)N[C@@H](CCC(N)=O)C(=O)N[C@@H](C)C(=O)N[C@@H](C)C(=O)N[C@@H](CCCCN)C(=O)N[C@@H](CCC(=O)O)C(=O)N[C@@H](Cc1ccccc1)C(=O)N[C@H](C(=O)N[C@@H](C)C(=O)N[C@@H](Cc1c[nH]c2ccccc12)C(=O)N[C@@H](CC(C)C)C(=O)N[C@@H](CC(C)C)C(=O)N[C@@H](CC(=O)O)C(=O)N[C@H](C(N)=O)[C@@H](C)O)[C@@H](C)CC)C(=O)O
0.14 nM,0.15 nM,5.53 nM,20%,21%,0%,CC[C@H](C)[C@H](NC(=O)[C@H](Cc1ccccc1)NC(=O)[C@H](CCC(=O)O)NC(=O)[C@@H]1CCCCNC(=O)CC[C@H](NC(=O)[C@H](CC(=O)O)NC(=O)[C@H](CC(C)C)NC(=O)[C@H](Cc2ccc(O)cc2)NC(=O)[C@H](CCCCN)NC(=O)[C@H](CO)NC(=O)[C@H](Cc2ccc(O)cc2)NC(=O)[C@H](CC(=O)O)NC(=O)[C@H](CO)NC(=O)[C@@H](NC(=O)[C@H](Cc2ccccc2)NC(=O)[C@@H](NC(=O)CNC(=O)[C@H](CCC(N)=O)NC(=O)[C@H](CO)NC(=O)[C@@H](N)Cc2cnc[nH]2)[C@@H](C)O)[C@@H](C)O)C(=O)N[C@@H]([C@@H](C)CC)C(=O)N[C@@H](Cc2cnc[nH]2)C(=O)N[C@@H](CCC(N)=O)C(=O)N1)C(=O)N[C@@H](C)C(=O)N[C@@H](Cc1c[nH]c2ccccc12)C(=O)N[C@@H](CC(C)C)C(=O)N[C@@H](CCSC)C(=O)N[C@@H](CC(N)=O)C(=O)N[C@H](C(N)=O)[C@@H](C)O
0.03 nM,5.22 nM,0.867 nM,93%,1%,2%,CC[C@H](C)[C@H](NC(=O)[C@H](Cc1ccccc1)NC(=O)[C@H](CCC(=O)O)NC(=O)[C@H](CCCCN)NC(=O)[C@H](C)NC(=O)[C@H](C)NC(=O)[C@H](CCC(N)=O)NC(=O)[C@H](CCC(=O)O)NC(=O)[C@H](CC(=O)O)NC(=O)[C@H](CC(C)C)NC(=O)[C@H](Cc1ccc(O)cc1)NC(=O)[C@H](CCCCN)NC(=O)[C@H](CO)NC(=O)[C@H](Cc1ccc(O)cc1)NC(=O)[C@H](CC(=O)O)NC(=O)[C@H](CO)NC(=O)[C@@H](NC(=O)[C@H](Cc1ccccc1)NC(=O)[C@@H](NC(=O)CNC(=O)[C@H](CCC(=O)O)NC(=O)[C@H](CO)NC(=O)[C@@H](N)Cc1cnc[nH]1)[C@@H](C)O)[C@@H](C)O)C(=O)N[C@@H](C)C(=O)N[C@@H](Cc1c[nH]c2ccccc12)C(=O)N[C@@H](CC(C)C)C(=O)N[C@@H](CCSC)C(=O)N[C@@H](CC(N)=O)C(=O)N[C@H](C(N)=O)[C@@H](C)O (H-HSEGTFTSDYSKYLDEQAAKEFIAWLMNT-NH2)
0.115 nM,0.016 nM,5.83 nM,24%,200%,0%,CCCCCCCCCCCCCCCC(=O)N[C@@H](CCC(=O)NCCCC[C@H](NC(=O)[C@H](CC(=O)O)NC(=O)[C@H](CO)NC(=O)[C@@H](NC(=O)[C@H](Cc1ccccc1)NC(=O)[C@@H](NC(=O)CNC(=O)[C@H](CCC(N)=O)NC(=O)CN(C)C(=O)[C@@H](N)Cc1cnc[nH]1)[C@@H](C)O)[C@@H](C)O)C(=O)N[C@@H](CO)C(=O)N[C@@H](CCCCN)C(=O)N[C@@H](Cc1ccc(O)cc1)C(=O)N[C@@H](CC(C)C)C(=O)N[C@@H](CC(=O)O)C(=O)N[C@@H](CCC(=O)O)C(=O)N[C@@H](CCCNC(=N)N)C(=O)N[C@@H](C)C(=O)N[C@@H](C)C(=O)N[C@@H](CCC(N)=O)C(=O)N[C@@H](CC(=O)O)C(=O)N[C@@H](Cc1ccccc1)C(=O)N[C@H](C(=O)N[C@@H](CCC(N)=O)C(=O)N[C@@H](Cc1c[nH]c2ccccc12)C(=O)N[C@@H](CC(C)C)C(=O)N[C@@H](CC(C)C)C(=O)N[C@@H](CC(=O)O)C(=O)N[C@H](C(N)=O)[C@@H](C)O)C(C)C)C(=O)O
0.039 nM,0.041 nM,2.69 nM,72%,78%,1%,CCCCCCCCCCCCCCCC(=O)N[C@@H](CCC(=O)NCCCC[C@H](NC(=O)[C@H](CC(=O)O)NC(=O)[C@H](CO)NC(=O)[C@@H](NC(=O)[C@H](Cc1ccccc1)NC(=O)[C@@H](NC(=O)CNC(=O)[C@H](CCC(N)=O)NC(=O)[C@@H](CO)NC(=O)[C@@H](N)Cc1cnc[nH]1)[C@@H](C)O)[C@@H](C)O)C(=O)N[C@@H](CO)C(=O)N[C@@H](CCCCN)C(=O)N[C@@H](Cc1ccc(O)cc1)C(=O)N[C@@H](CC(C)C)C(=O)N[C@@H](CC(=O)O)C(=O)N[C@@H](CCC(=O)O)C(=O)N[C@@H](CCC(N)=O)C(=O)N[C@@H](C)C(=O)N[C@@H](C)C(=O)N[C@@H](CCCCN)C(=O)N[C@@H](CCC(=O)O)C(=O)N[C@@H](Cc1ccccc1)C(=O)N[C@H](C(=O)N[C@@H](C)C(=O)N[C@@H](Cc1c[nH]c2ccccc12)C(=O)N[C@@H](CC(C)C)C(=O)N[C@@H](CCSC)C(=O)N[C@@H](CC(N)=O)C(=O)N[C@H](C(N)=O)[C@@H](C)O)[C@@H](C)CC)C(=O)O
0.068 nM,0.005 nM,2.03 nM,41%,640%,1%,CCCCCCCCCCCCCCCC(=O)N[C@@H](CCC(=O)NCCCC[C@H](NC(=O)[C@H](CC(=O)O)NC(=O)[C@H](CO)NC(=O)[C@@H](NC(=O)[C@H](Cc1ccccc1)NC(=O)[C@@H](NC(=O)CNC(=O)[C@H](CCC(N)=O)NC(=O)C(C)(C)NC(=O)[C@@H](N)Cc1cnc[nH]1)[C@@H](C)O)[C@@H](C)O)C(=O)N[C@@H](CO)C(=O)N[C@@H](CCCCN)C(=O)N[C@@H](Cc1ccc(O)cc1)C(=O)N[C@@H](CC(C)C)C(=O)N[C@@H](CC(=O)O)C(=O)N[C@@H](CCC(=O)O)C(=O)N[C@@H](CCCNC(=N)N)C(=O)N[C@@H](C)C(=O)N[C@@H](C)C(=O)N[C@@H](CCC(N)=O)C(=O)N[C@@H](CC(=O)O)C(=O)N[C@@H](Cc1ccccc1)C(=O)N[C@H](C(=O)N[C@@H](CCC(N)=O)C(=O)N[C@@H](Cc1c[nH]c2ccccc12)C(=O)N[C@@H](CC(C)C)C(=O)N[C@@H](CC(C)C)C(=O)N[C@@H](CC(=O)O)C(=O)N[C@H](C(N)=O)[C@@H](C)O)C(C)C)C(=O)O
